Reference: US20050266469A1, “Alternatively spliced isoforms of checkpoint kinase 1 (CHK1)” (priority 2004, published 2005)
Read-outs that look alike come from different tables or passages of the source.

Assays:
CHK1sv1 = biological target: T1, CHK1sv1 (Homo sapiens, UniProt O14757); assay: CHK1sv1 kinase assay (Homogenous Time-Resolved Fluorescence, synthetic peptide substrate); assay type: biochemical
T1 construct: made in house; host or cells: SF9 insect cells (baculovirus, pVL1393 transfer vector)
T1 sequence (O14757 with tags, fused parts or gaps): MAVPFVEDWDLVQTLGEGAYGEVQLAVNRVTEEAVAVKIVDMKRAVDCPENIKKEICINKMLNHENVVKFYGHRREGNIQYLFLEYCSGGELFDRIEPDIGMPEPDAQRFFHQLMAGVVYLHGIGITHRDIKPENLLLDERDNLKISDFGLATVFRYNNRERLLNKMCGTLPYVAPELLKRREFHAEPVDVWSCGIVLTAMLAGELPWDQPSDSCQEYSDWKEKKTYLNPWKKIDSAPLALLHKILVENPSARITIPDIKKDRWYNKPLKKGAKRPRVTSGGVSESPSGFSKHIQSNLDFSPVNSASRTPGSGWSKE
Procedure: CHK1sv1 activity was assayed in vitro using a synthetic peptide substrate. The phophopeptide product was quantitated using a Homogenous Time-Resolved Fluorescence assay system (Park et al., 1999, Anal. Biochem. 269:94-104). The reaction mixture contained 40 mM HEPES, pH 7.3; 100 mM NaCl; 10 mM MgCl2; 2 mM dithiothreitol; 0.1% BSA; 0.1 mM ATP; 0.5 μM peptide substrate; and 0.1 nM CHK1sv1 enzyme in a final volume of 40 μl. […] The kinase reaction was incubated for 30 minutes at 22° C., and then terminated with 60 μl Stop/Detection Buffer (40 mM HEPES, pH 7.3; 10 mM EDTA; 0.125% Triton X-100; 1.25% BSA; 250 nM PhycoLink Streptavidin-Allophycocyanin (APC) Conjugate (Prozyme, San Leandro, Calif.); and […] Europium-chelate labeled anti-phosphotyrosine antibody (PY20, Perkin Elmer, Boston, Mass.)). The reaction was allowed to equilibrate for 2 hours at 22° C., and relative fluorescent units were read on a Discovery plate reader (Packard Biosciences). ATP Km was determined by varying ATP concentration from 0.003 to 3 mM in the reaction described above and determining the relative enzymatic rates. […] CHK1sv1 Vmax was calculated by determining the amount of phospho-peptide product formed per microgram of CHKsv1 when both ATP and CDC25C peptide substrate are at saturating concentrations.

reference CHK1 = biological target: T2, reference CHK1 (Homo sapiens, UniProt O14757); details: cited from earlier work
T2 sequence (O14757 1-476): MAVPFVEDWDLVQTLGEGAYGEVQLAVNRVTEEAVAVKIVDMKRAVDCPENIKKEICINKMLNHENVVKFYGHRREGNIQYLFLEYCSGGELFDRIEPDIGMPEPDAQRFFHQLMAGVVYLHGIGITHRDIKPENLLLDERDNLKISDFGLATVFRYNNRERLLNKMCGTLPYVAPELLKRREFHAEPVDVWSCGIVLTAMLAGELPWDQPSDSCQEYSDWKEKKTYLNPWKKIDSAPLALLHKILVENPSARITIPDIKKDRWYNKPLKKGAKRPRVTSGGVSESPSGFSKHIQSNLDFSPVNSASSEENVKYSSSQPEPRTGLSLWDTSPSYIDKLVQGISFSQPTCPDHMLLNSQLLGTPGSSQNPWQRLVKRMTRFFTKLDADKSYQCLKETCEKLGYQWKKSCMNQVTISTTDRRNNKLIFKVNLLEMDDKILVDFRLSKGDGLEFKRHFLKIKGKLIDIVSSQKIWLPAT

[1] = read-out: CHK1sv1 inhibition by derivatives of staurosporin, IC50 values, CHK1sv1 enzyme 0.1 nM, 0.1 mM ATP, 0.5 μM peptide substrate, 30 minutes at 22° C.

For “CDC25C substrate: peptide derived from the known CHK1 kinase substrate CDC25C, GLYRSPSMPENLNR (SynPep) (listed as Homo sapiens)”, the Km (CHK1sv1; CDC25C-derived peptide varied from 0.0003 to 1 mM) is given as 120 µM and the Km (reference CHK1; previously described (O'Neill et al., 2002; Jackson et al., 2000), read-out: Km (CDC25C substrate)) is given as 12 µM.

`CN(C)C[C@H]1CCn2c(c(C3=C(c4cn(C)c5ccccc45)C(=O)NC3=O)c3ccccc32)C1` [RO-320432] showed an IC50 (CHK1sv1; CHK1sv1 enzyme 0.1 nM, 0.1 mM ATP, 0.5 μM peptide substrate, 30 minutes at 22° C.) of 0.39 µM.

For `Cn1c2ccccc2c2c3c(c4c5ccccc5n(CCC#N)c4c21)CNC3=O` [Gö6976], the IC50 (CHK1sv1; [1]) is listed as 0.00075 µM and the IC50 (reference CHK1; previously published (Davies et al., 2000), read-out: IC50 value for the reference CHK1 inhibited by Gö6976) is listed as 0.003 µM.

With `COC(=O)[C@@]1(O)C[C@H]2O[C@]1(C)n1c3ccccc3c3c4c(c5c6ccccc6n2c5c31)C(=O)NC4` [K252A] the IC50 (CHK1sv1) was 0.05 µM.

For `Cn1cc(C2=C(c3cn(CCCN)c4ccccc34)C(=O)NC2=O)c2ccccc21` [RO317549], the IC50 (CHK1sv1; [1]) was 0.125 µM.
